# Laboratory results from PMC7146381, “Modulation of Adhesion Process, E-Selectin and VEGF Production by Anthocyanins and Their Metabolites in an In Vitro Model of Atherosclerosis” (Nutrients, 2020).
# Marks after values point to notes of the source that are not given here.
# Legend:
# [1] = test system: adhesion of monocytes to endothelial cells; set-up: method as in PMID 26873533; settings: TNF-α 4 h, monocyte co-incubation 15 min; cited from earlier work
# [2] = Cytotoxicity, Trypan blue assay on HUVECs; type: cell-based, Human; settings: human
# Method: (§1) The cytotoxicity of the compounds was tested by Trypan blue and (3-(4,5-dimethylthiazol-2-yl)-2, 5-diphenyltetrazolium bromide (MTT) assay on HUVECs, according to the manufacturer’s instructions. Triton X-100 was used as positive control. Two independent experiments were performed in which each compound and concentration was tested in quadruplicate.
# [3] = Cytotoxicity, MTT assay on HUVECs; type: cell-based; settings: human, with TNF-α stimulus, mean ± SEM, read-out: Percentage of cell viability, MTT assay
# Method: as §1
# [4] = test system: E-selectin; experiment: ELISA quantification of E-selectin in cell supernatant; type: cell-based, Human; settings: for levels of E-selectin in cell supernatant: with TNF-α 100 ng mL^−1, mean ± SEM; for change of E-selectin levels compared to the negative control (without TNF-α): p < 0.05
# Method: (§2) When the confluency reached about 80%, HUVECs were removed using trypsin ([…]) and seeded on a 0.1% gelatin pre-coated 96-well black plate at the concentration of 2 × 10^4 cells/well at 37 °C and 5% CO2. After 24 h incubation, THP-1 (2 × 10^6) cells were labelled with CellTracker^TM Green CMFDA (1 µM) in 1 mL serum-free RPMI medium (containing 1% HEPES, 1% sodium pyruvate and 0.1% gentamicin) for 30 min. Successively, cells were washed twice, re-suspended in HUVEC medium at a final concentration of 2 × 10^5 cells mL^−1 and added to HUVECs. The adhesion process was induced for 24 h with 100 ng mL^−1 of TNF-α. Then, 200 μL of new medium containing the single compounds (0.02 µM, 0.2 µM, 2 µM and 20 µM for Peo and Pet-3-glc and 0.05 µM, 0.5 µM, 5 µM and 50 µM for VA and MetGA) was added and the cells were further incubated for 24 h. Medium from each well was collected and stored at −80 °C until ELISA analysis. Cells were rinsed twice with 200 µL of Hanks balanced salt solution and the fluorescence (excitation: 485 nm, emission: 538 nm) associated with the number of labeled THP-1 cells attached to the HUVECs was measured by a spectrophotometer (mod. F200 Infinite, TECAN Milan, Italy). Each compound and concentration were tested in quintuplicate in three independent experiments.
# (§3) At the end of the experiment, the recovered cell culture supernatants were used to quantify the concentrations of soluble VCAM-1 (Cat# EK0537, BosterBio), E-selectin (Cat# MBS355367, MyBioSource) and VEGF (Cat# V3-200-820-VEF, Vinci-Biochem). The analysis was performed using ELISA kits according to the manufacturer’s instruction. The analyses were conducted in quadruplicate and the results derived from three independent experiments.
# [5] = test system: soluble VCAM-1; experiment: ELISA quantification of soluble VCAM-1 in cell supernatant; type: cell-based, Human; settings: with TNF-α 100 ng mL^−1, mean ± SEM
# Method: as §2, §3
# [6] = test system: VEGF; experiment: ELISA quantification of VEGF in cell supernatant; type: cell-based, Human; settings: for levels of VEGF in cell supernatant: with TNF-α 100 ng mL^−1, mean ± SEM
# Method: as §2, §3
# [7] = test system: THP-1 adhesion to HUVECs; experiment: THP-1 (monocytes) adhesion to TNF-α-activated HUVECs, fluorescence of labelled THP-1; type: cell-based, Human; settings: 24 h after TNF-α 100 ng mL^−1
# Method: as §2
# [8] = test system: HUVECs; experiment: Cytotoxicity, Trypan blue assay on HUVECs; type: cell-based, Human; settings: positive control, HUVEC cells, data not shown; p < 0.0001 vs cells with and without TNF-α (99%)
# Method: as §1
# [9] = 0.02 µM, controls 160-164 (no TNF-α), 316-317 (TNF-α)
# [10] = 0.02 µM, controls 59-64 (no TNF-α), 307-316 (TNF-α)
# [11] = 0.02 µM, controls 120-121 (no TNF-α), 170-172 (TNF-α)
compound,measurement,setting,value
OC[C@H]1O[C@@H](Oc2cc3c(O)cc(O)cc3[o+]c2-c2cc(O)c(O)c(O)c2)[C@H](O)[C@@H](O)[C@@H]1O [delphinidin-3-glucoside],concentrations with significant reduction in the adhesion of monocytes to endothelial cells,[1],all the concentrations tested
"O=C(O)CNC(=O)c1ccccc1 [hippuric acids, hippuric acid]",concentrations with significant reduction in the adhesion of monocytes to endothelial cells,[1],only effective at 1 μM and 2 µM
"COc1cc(/C=C/C(=O)O)ccc1O [ferulic, ferulic acid]",concentrations with significant reduction in the adhesion of monocytes to endothelial cells,[1],only effective at 1 μM and 2 µM
OC[C@H]1O[C@@H](Oc2cc3c(O)cc(O)cc3[o+]c2-c2ccc(O)c(O)c2)[C@H](O)[C@@H](O)[C@@H]1O [cyanidin-3-glucoside],concentrations with significant reduction in the adhesion of monocytes to endothelial cells,[1],0.1 to 2 µM
O=C(O)c1ccc(O)c(O)c1 [protocatechuic acid],concentrations with significant reduction in the adhesion of monocytes to endothelial cells,[1],all concentration tested
Oc1cc(O)c2cc(O[C@@H]3OC[C@H](O)[C@H](O)[C@H]3O)c(-c3ccc(O)c(O)c3)[o+]c2c1 [arabinoside],concentrations with significant reduction in the adhesion of monocytes to endothelial cells,[1],0.1 to 2 µM
"COc1cc(-c2[o+]c3cc(O)cc(O)c3cc2O[C@@H]2O[C@H](CO)[C@@H](O)[C@H](O)[C@H]2O)ccc1O [Peo-3-glc, peonidin-3-glucoside]",viability at 0.02 µM,[2],99.7 ± 0.33%
same,viability at 0.2 µM,[2],100%
same,viability at 2 µM,[2],99.3 ± 0.67%
same,viability at 20 µM,[2],99.3 ± 0.33%
same,viability at 20 µM,[3],98.5 ± 0.12%
same,levels of E-selectin in cell supernatant,[4]; [9],143 ± 4.3 ^a
same,change of E-selectin production vs TNF-α control,"[4]; 0.02 μM, p < 0.001",−55%
same,levels of E-selectin in cell supernatant,[4]; 0.2 µM,108 ± 5.3 ^c
same,change of E-selectin production vs TNF-α control,"[4]; 0.2 μM, p < 0.001",−66%
same,change of E-selectin levels compared to the negative control (without TNF-α),[4]; 0.2 μM,−32%
same,levels of E-selectin in cell supernatant,[4]; 2 µM,109 ± 7.2 ^c
same,change of E-selectin production vs TNF-α control,"[4]; 2 μM, p < 0.001",−65%
same,change of E-selectin levels compared to the negative control (without TNF-α),[4]; 2 μM,−31%
same,levels of E-selectin in cell supernatant,[4]; 20 µM,76 ± 8.4 ^c
same,change of E-selectin production vs TNF-α control,"[4]; 20 μM, p < 0.001",−76%
same,change of E-selectin levels compared to the negative control (without TNF-α),[4]; 20 µM,−53%
same,levels of sVCAM-1 in cell supernatant,[5]; [10],107 ± 15 ^c
same,levels of sVCAM-1 in cell supernatant,[5]; 0.2 µM,104 ± 16 ^c
same,levels of sVCAM-1 in cell supernatant,[5]; 2 µM,186 ± 12 ^c
same,levels of sVCAM-1 in cell supernatant,[5]; 20 µM,149 ± 24 ^c
same,levels of VEGF in cell supernatant,[6]; [11],120 ± 6.9 ^a
same,change of VEGF concentrations vs TNF-α,"[6]; 0.02 μM, p < 0.001",−27%
same,levels of VEGF in cell supernatant,[6]; 0.2 µM,123 ± 1.7 ^a
same,change of VEGF concentrations vs TNF-α,"[6]; 0.2 μM, p < 0.001",−28%
same,levels of VEGF in cell supernatant,[6]; 2 µM,123 ± 6.0 ^a
same,change of VEGF concentrations vs TNF-α,"[6]; 2 μM, p < 0.001",−30%
same,levels of VEGF in cell supernatant,[6]; 20 µM,119 ± 2.6 ^a
same,change of VEGF concentrations vs TNF-α,"[6]; 20 μM, p < 0.001",−30%
same,concentrations with significant reduction in the adhesion of monocytes to endothelial cells,[1],effective only at the lowest concentration
same,change of THP-1 adhesion to HUVECs compared to the TNF-α treatment,"[7]; 0.02 µM, p < 0.0001",−37%
same,change of THP-1 adhesion to HUVECs compared to the TNF-α treatment,"[7]; 0.2 µM, p < 0.0001",−24%
same,change of THP-1 adhesion to HUVECs compared to the TNF-α treatment,"[7]; 2 µM, p < 0.0001",−30%
same,change of THP-1 adhesion to HUVECs compared to the TNF-α treatment,"[7]; 20 μM, p < 0.0001",−47%
"COc1cc(-c2[o+]c3cc(O)cc(O)c3cc2O[C@@H]2O[C@H](CO)[C@@H](O)[C@H](O)[C@H]2O)cc(O)c1O [Pet-3-glc, petunidin-3-glucoside]",viability at 0.02 µM,[2],110%
same,viability at 0.2 µM,[2],97 ± 1%
same,viability at 2 µM,[2],97.7 ± 0.33%
same,viability at 20 µM,[2],100%
same,viability at 20 µM,[3],94.4 ± 0.45%
same,levels of E-selectin in cell supernatant,[4]; [9],115 ± 7.5 ^c
same,change of E-selectin production vs TNF-α control,"[4]; 0.02 μM, p < 0.001",−64%
same,change of E-selectin levels compared to the negative control (without TNF-α),[4]; 0.02 µM,−28%
same,levels of E-selectin in cell supernatant,[4]; 0.2 µM,"123 ± 11.8 ^a,c"
same,change of E-selectin production vs TNF-α control,"[4]; 0.2 μM, p < 0.001",−60%
same,levels of E-selectin in cell supernatant,[4]; 2 µM,104 ± 6.3 ^c
same,change of E-selectin production vs TNF-α control,"[4]; 2 μM, p < 0.001",−67%
same,change of E-selectin levels compared to the negative control (without TNF-α),[4]; 2 μM,−36%
same,levels of E-selectin in cell supernatant,[4]; 20 µM,88 ± 12.1 ^c
same,change of E-selectin production vs TNF-α control,"[4]; 20 μM, p < 0.001",−72%
same,change of E-selectin levels compared to the negative control (without TNF-α),[4]; 20 µM,−45%
same,levels of sVCAM-1 in cell supernatant,[5]; [10],311 ± 13 ^b
same,levels of sVCAM-1 in cell supernatant,[5]; 0.2 µM,297 ± 15 ^b
same,levels of sVCAM-1 in cell supernatant,[5]; 2 µM,300 ± 14 ^b
same,levels of sVCAM-1 in cell supernatant,[5]; 20 µM,83 ± 10 ^c
same,levels of VEGF in cell supernatant,[6]; [11],129 ± 10 ^a
same,change of VEGF concentrations vs TNF-α,"[6]; 0.02 μM, p < 0.001",−24%
same,levels of VEGF in cell supernatant,[6]; 0.2 µM,123 ± 7.4 ^a
same,change of VEGF concentrations vs TNF-α,"[6]; 0.2 μM, p < 0.001",−27%
same,levels of VEGF in cell supernatant,[6]; 2 µM,123 ± 2.9 ^a
same,change of VEGF concentrations vs TNF-α,"[6]; 2 μM, p < 0.001",−28%
same,levels of VEGF in cell supernatant,[6]; 20 µM,117 ± 9.9 ^a
same,change of VEGF concentrations vs TNF-α,"[6]; 20 μM, p < 0.001",−30%
same,change of THP-1 adhesion to HUVECs compared to the TNF-α treatment,"[7]; 0.02 µM, p < 0.0001",−37%
same,change of THP-1 adhesion to HUVECs compared to the TNF-α treatment,"[7]; 0.2 µM, p < 0.0001",−33%
same,change of THP-1 adhesion to HUVECs compared to the TNF-α treatment,"[7]; 2 µM, p < 0.0001",−33%
same,change of THP-1 adhesion to HUVECs compared to the TNF-α treatment,"[7]; 20 μM, p < 0.0001",−45%
"COc1cc(C(=O)O)ccc1O [VA, vanillic acid]",viability at 0.05 µM,[2],100%
same,viability at 0.5 µM,[2],99.7 ± 0.33%
same,viability at 5 µM,[2],99.7 ± 0.66%
same,viability at 50 µM,[2],99.3 ± 0.67%
same,viability at 50 µM,[3]; 50 µM,99.7 ± 0.32%
same,levels of E-selectin in cell supernatant,[4]; 0.05 µM,312 ± 14.1 ^b
same,levels of E-selectin in cell supernatant,[4]; 0.5 µM,312 ± 11.2 ^b
same,levels of E-selectin in cell supernatant,[4]; 5 µM,305 ± 7.4 ^b
same,levels of E-selectin in cell supernatant,[4]; 50 µM,95 ± 13.2 ^c
same,change of E-selectin levels with respect to the positive TNF-α control,"[4]; 50 μM, p < 0.001",−70%
same,change of VEGF concentrations vs TNF-α,[6]; 0.05 μM,−12%
same,levels of VEGF in cell supernatant,[6]; 0.05 µM,149 ± 3.0 ^c
same,change of VEGF concentrations vs TNF-α,[6]; 0.5 μM,−17%
same,levels of VEGF in cell supernatant,[6]; 0.5 µM,141 ± 8.3 ^c
same,change of VEGF concentrations vs TNF-α,[6]; 5 μM,−13%
same,levels of VEGF in cell supernatant,[6]; 5 µM,147 ± 4.9 ^c
same,change of VEGF concentrations vs TNF-α,[6]; 50 μM,−21%
same,levels of VEGF in cell supernatant,[6]; 50 µM,135 ± 5.7 ^c
same,concentrations with significant reduction in the adhesion of monocytes to endothelial cells,[1],0.2 μM and 2 µM only
same,change of THP-1 adhesion to HUVECs compared to the TNF-α treatment,"[7]; 50 μM, p < 0.001",−21%
Triton X-100 [reference compound],cell viability reduced up to,[8],20%
OC[C@H]1O[C@@H](Oc2cc3c(O)cc(O)cc3[o+]c2-c2ccc(O)c(O)c2)[C@H](O)[C@@H](O)[C@H]1O [galactoside],concentrations with significant reduction in the adhesion of monocytes to endothelial cells,[1],0.1 to 2 µM
